Measured values from patent US10144914B2, “Modified substrates for protection of peptide-immobilized surfaces from gamma radiation degradation” (Corning Incorporated, priority 2010, dated 2018).

Experiments:
[1] = Solubility of individual coating components in water, ethanol and 1M HCl; type: physicochemical
Method: iii) Preparation of Antioxidant/Stabilizer Formulations: Prior to preparation of the antioxidant/stabilizer coating formulation, solubility of the individual components of each formulation was determined in water, ethanol and 1M HCl. Majority of the components were soluble in water, except for two in ethanol and one in 1M HCl. Both n-propyl gallate and Trolox were soluble in ethanol and only L-Tryptophan in 1M HCl. For each individual coating mixture formulation (i.e. Coatings 1-8), in a separate 25 mL glass vial containing the different components individually weighed out based on their respective wt % (see Table 1, below), Coating 1: 22 ml of solvent was used to make the coating solution (i.e. 20 mL of DI/water+2 ml of ethanol); Coating 2: 20 mL of DI/water added to vial; Coating 3: 18 mL of DI/water added+2 mL of ethanol to vial; Coating 4: 20 mL of DI/water+2 mL of ethanol; Coating 5: 16 mL of DI/water+4 mL of 1M HCl; Coating 6: 12 mL of DI/water+2 mL of ethanol+4 mL of 1M HCl; Coating 7: 20 mL of DI/water; Coating 8: 10 ml of DI/water+4 ml of ethanol+5 ml of 1M HCl.

H7 cells [2] = test: Crystal violet staining of H7 cells on gamma sterilized VN peptide acrylate surface, amino acid blocking; type: cell-based, human; details: gamma irradiated; for H7 attachment and growth (crystal violet staining): used as blocking reagent after peptide conjugation
From the text: (§1) Acrylate coating: 2-Hydroxyethyl methacryalte, 2-carboxyethyl acrylate, tetra(ethylene glycol) dimethacrylate, Darocur 1173, Irgacure 819 were mixed with ratio of 80:20:3:3:0.1 and dissolved in ethanol at total monomer concentration of 5%. The obtained formulation was spin coated on oxygen plasma treated Zeonor film. After ethanol evaporated, the (meth)acrylate coating was cured using Xenon pulsed UV curing system in nitrogen purged box. Then, the coated films were in-mold-labeled into T-75 Zeonor flasks and used for conjugation directly.
(§2) Peptide conjugation: The acrylate surface was activated for an hour with 1:1 EDC: NHS in DMF. After aspiration of the activation solution, the surface was treated for an hour with 1 mM of the VN peptide (Ac-[…]) (SEQ ID NO:1) in phosphate buffer (pH7.4). After aspiration of the peptide solution, the surface was treated for an hour with 1M ethanolamine adjusted to pH 8.0-8.5 with hydrochloric acid or 0.1M of L-methionine methyl ester hydrochloride adjusted to pH 8 with sodium hydroxide based on experimental design. All reactions were performed at room temperature.
Sterilization: Flasks were packed with nitrogen and desiccant in aluminum pouch for Gamma sterilization. The irradiation dose was 11-18 kGy. Positive control VN-peptide acrylate sample was sanitized with 70% ethanol.
Stem cell culture: H7 cells were sub-cultured into T-75 fasks with desired peptide acrylate surfaces or Matrigel™ coated surfaces (positive control) at the density of 100,000 cell/cm^2 in X-VIVO 10+GF medium. Microscopic examination of cell and colony morphology was performed at day 3 or day 4. Cell number was assessed at day 4 or day 5 by harvesting with collagenase IV/EDTA treatment followed by cell counting with automated cell number/viability analyzer, Vi-Cell (Beckman Coulter). For methionine methyl ester treated surface, a step of rinsing with DPBS was applied to remove amino acid extractables before cell culture.

H7 cells [3] = test: H7 cell count and morphology on gamma sterilized VN peptide acrylate surface after amino acid absorption; type: cell-based, human; details: 0.1M absorbed 1 hr, gamma 11-18 kGy
From the text: as §1, §2
Amino acid absorption: Peptide conjugated T-75 flask was filled with 10 mL of 0.1M of L-methionine methyl ester hydrochloride adjusted to pH 8 with sodium hydroxide. The flasks were lay flat so that the peptide surfaces were submerged under the amino acid solution and were incubated for 1 hr. This allows positive charged amino acid to be absorbed into negative charged peptide-acrylate coating. Then the amino acid solution was removed and the flasks were dried in vacuum for overnight before packing and sterilization. […]
Stem cell culture: H7 cells were sub-cultured into T-75 fasks with desired peptide acrylate surfaces or Matrigel™ coated surfaces (positive control) at the density of 100,000 cell/cm^2 in X-VIVO 10+GF medium. […] Cell number was assessed at day 4 or day 5 by harvesting with collagenase IV/EDTA treatment followed by cell counting with automated cell number/viability analyzer, Vi-Cell (Beckman Coulter). […]

[4] = Solubility of VN peptide in ethanol; type: physicochemical; details: 100% 200-proof ethanol, 0.5 mM or 1 mM, after agitation
Method: iii) Preparation of VN peptide coating solution: A 10 mL 0.5 mM or 1 mM VN coating solution was prepared by weighing out their corresponding masses and dissolving using a 100% 200-proof ethanol as the solvent.

Question: For N[C@@H](Cc1c[nH]c2ccccc12)C(=O)O [L-Tryptophan], which “solubility in 1M HCl” value ([1]; 1M HCl) is on record?
Answer: Its value is “soluble”.

Question: For Cc1c(C)c2c(c(C)c1O)CCC(C)(C(=O)O)O2 (stereo not shown) [Trolox], which solubility in ethanol [1] is on record?
Answer: Its solubility in ethanol is “soluble”.

Question: Which “H7 attachment and growth (crystal violet staining)” value (H7 cells [2]) does the source give for NCCO [ethanolamine, reference compound] here?
Answer: The value was “there were not cells attached or grew”.

Question: Which “bioactivity of VN-peptide acrylate surface after Gamma irradiation” value (H7 cells [3]) does the source give for COC(=O)[C@@H](N)CCSC.Cl [methionine methyl ester, L-methionine methyl ester hydrochloride] here?
Answer: The value was “maintained”.

Question: And the “stem cell morphology versus positive control” value (H7 cells [3])?
Answer: The value was “comparable”.

Question: And the “cell number after 4 days of culture versus ETOH ctr and Matrigel” value (H7 cells [3]; day 4)?
Answer: Its value is “comparable”.

Question: What about the “H7 attachment and growth (crystal violet staining)” value (H7 cells [2]) of the same compound?
Answer: Its value is “still support good H7 attachment and growth”.

Question: And the “cell morphology versus ethanol sanitized surfaces” value (H7 cells [2]; used as blocking reagent)?
Answer: Its value is “still not able to much those on ethanol sanitized surfaces”.

Question: For CCCOC(=O)c1cc(O)c(O)c(O)c1 [n-propyl gallate], which solubility in ethanol [1] is on record?
Answer: The solubility in ethanol was “soluble”.

Question: For “Ac-KGGPQVTRGDVFTMP-NH2 (C-terminus assumed) [VN peptide]”, which “solubility in the ethanol solvent” value [4] is on record?
Answer: The value was “partial to almost completely soluble”.
